# Earlier results as cited in article PMC3074590 (Science (New York, N.Y.), 2010).
# Test system: CXCR4
# Settings: characterized previously; no reference printed at this statement
compound,measurement,value
CC1(C)CN2C(CSC(=NC3CCCCC3)NC3CCCCC3)=CSC2=N1 [IT1t],mode of inhibition of CXCL12,competitive inhibitors of CXCL12
